Data taken from patent US6355799B1, “Substituted benzene compounds, process for their preparation, and herbicidal and defoliant compositions containing them” (ISK Americas Incorporated, priority 1997, dated 2002).

Columns and labels:
Type in all cases: in vivo
[1] = system: redroot pigweed (Amaranthus retroflexus, AMARE); test: Pre-emerge test, greenhouse herbicide activity screening; details: rated 14 days after application, 0 = no damage, 100 = complete death
Outline: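 Compounds in acetone were track-sprayed at 187 l/ha, 15–1000 g ai/ha, onto sandy loam pots. Pre-emerge seeds were sown one day before spraying, with surface watering afterwards. Post-emerge plants were at the 2–3 leaf stage and sprayed with 0.25% v/v non-ionic surfactant. Injury was rated 0–100 at 14 days.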

[2] = system: barnyardgrass (Echinochloa crus-galli, ECHCG); test: as above; details: rated 14 days after application, 0 = no damage, 100 = complete death
Outline: (§1)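 Applied at 15–1000 g ai/ha from acetone in 187 l/ha spray volume. Post-emergence applications included 0.25% v/v non-ionic surfactant and reached plants sown 8–21 days before. Pre-emergence applications were incorporated by surface watering. Efficacy or crop damage was rated on a 0–100 scale after 14 days.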

[3] = system: common ragweed (Ambrosia artemisizfolia L., AMBEL); test: as above; details: rated 14 days after application, 0 = no damage, 100 = complete death
Outline: as §1

[4] = system: green foxtail (Setaria viridis, SETVI); test: as above; details: rated 14 days after application, 0 = no damage, 100 = complete death
Outline: as §1

[5] = system: ivyleaf morningglory (Ipomoea hederacea, IPOHE); test: as above; details: rated 14 days after application, 0 = no damage, 100 = complete death
Outline: as §1

[6] = system: johnsongrass (Sorghum halepense, SORHA); test: as above; details: rated 14 days after application, 0 = no damage, 100 = complete death
Outline: as §1

[7] = system: lambsquarters (Chenopodium album, CHEAL); test: as above; details: rated 14 days after application, 0 = no damage, 100 = complete death
Outline: as §1

[8] = system: large crabgrass (Digitaria sanguinalis, DIGSA); test: as above; details: rated 14 days after application, 0 = no damage, 100 = complete death
Outline: as §1

[9] = system: sicklepod (Cassia obtusifolia, CASOB); test: as above; details: rated 14 days after application, 0 = no damage, 100 = complete death
Outline: as §1

[10] = system: velvetleaf (Abutilon theophrasti, ABUTH); test: as above; details: rated 14 days after application, 0 = no damage, 100 = complete death
Outline: as §1

[11] = system: field corn (Zea mays L., var. Dekalb 535, CORN); test: Pre-emerge test, crop safety; details: rated 14 days after application, 0 = no damage, 100 = complete death
Outline: (§2)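 Plants grown in 10 cm pots of sandy loam mix received acetone-dissolved compounds through a moving flat-fan nozzle. Doses ranged from 15 to 1000 g ai/ha. Pre-emerge pots were seeded one day earlier, post-emerge pots 8–21 days earlier. Fourteen days on, each pot was graded 0–100 for damage.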

[12] = system: upland rice (Oryza sp., var. Tebonnet, RICE); test: Pre-emerge test, crop safety; details: rated 14 days after application, 0 = no damage, 100 = complete death
Outline: as §2

[13] = system: barnyardgrass (Echinochloa crus-galli, ECHCG); test: Post-emerge test, greenhouse herbicide activity screening; details: post-emerge, 14 days after application, rating scale 0-100
Outline: (§3)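 Fourteen days after spraying, crop and weed injury was graded visually from 0, no effect, to 100, every plant dead. Test substances were dissolved in acetone and applied at 15–1000 g ai/ha with a flat-fan nozzle. Application was either pre-emergence, one day after sowing, or post-emergence at the 2–3 leaf stage.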

[14] = system: common ragweed (Ambrosia artemisizfolia L., AMBEL); test: as above; details: post-emerge, 14 days after application, rating scale 0-100
Outline: as §3

[15] = system: green foxtail (Setaria viridis, SETVI); test: as above; details: post-emerge, 14 days after application, rating scale 0-100
Outline: as §3

[16] = system: ivyleaf morningglory (Ipomoea hederacea, IPOHE); test: as above; details: post-emerge, 14 days after application, rating scale 0-100
Outline: as §3

[17] = system: johnsongrass (Sorghum halepense, SORHA); test: as above; details: post-emerge, 14 days after application, rating scale 0-100
Outline: as §3

[18] = system: lambsquarters (Chenopodium album, CHEAL); test: as above; details: post-emerge, 14 days after application, rating scale 0-100
Outline: as §3

[19] = system: large crabgrass (Digitaria sanguinalis, DIGSA); test: as above; details: post-emerge, 14 days after application, rating scale 0-100
Outline: as §3

[20] = system: redroot pigweed (Amaranthus retroflexus, AMARE); test: as above; details: post-emerge, 14 days after application, rating scale 0-100
Outline: as §3

[21] = system: sicklepod (Cassia obtusifolia, CASOB); test: as above; details: post-emerge, 14 days after application, rating scale 0-100
Outline: as §3

[22] = system: velvetleaf (Abutilon theophrasti, ABUTH); test: as above; details: post-emerge, 14 days after application, rating scale 0-100
Outline: as §3

[23] = system: field corn (Zea mays L., var. Dekalb 535, CORN); test: Post-emerge test, crop safety; details: post-emerge, 14 days after application, rating scale 0-100
Outline: as §1

[24] = system: upland rice (Oryza sp., var. Tebonnet, RICE); test: Post-emerge test, crop safety; details: post-emerge, 14 days after application, rating scale 0-100
Outline: as §1

COc1c(Cl)cc(F)c(-n2c(=O)cc(C(F)(F)F)n(C)c2=O)c1N(C(=O)c1ccc([N+](=O)[O-])cc1)C(=O)c1ccc([N+](=O)[O-])cc1 [2-69]
60: Pre-emerge Herbicidal Activity, phytotoxicity rating (0-100), AMBEL ([3]; 250 g ai/ha) | phytotoxicity rating CHEAL ([18]; 250 g ai/ha)
50: Pre-emerge Herbicidal Activity, phytotoxicity rating (0-100), AMBEL ([3]; 63 g ai/ha) | phytotoxicity rating IPOHE ([16]; 63 g ai/ha) | phytotoxicity rating CHEAL ([18]; 63 g ai/ha) | phytotoxicity rating AMARE ([20]; 250 g ai/ha)
40: Pre-emerge Herbicidal Activity, phytotoxicity rating (0-100), IPOHE ([5]; 250 g ai/ha) | phytotoxicity rating AMBEL ([14]; 63 g ai/ha) | phytotoxicity rating IPOHE ([16]; 250 g ai/ha) | phytotoxicity rating AMARE ([20]; 63 g ai/ha)
80: Pre-emerge Herbicidal Activity, phytotoxicity rating (0-100), CASOB ([9]; 250 g ai/ha)
20: Pre-emerge Herbicidal Activity, phytotoxicity rating (0-100), DIGSA ([8]; 63 g ai/ha) | Pre-emerge phytotoxicity rating (0-100), crop damage, RICE ([12]; 63 g ai/ha)
70: Pre-emerge Herbicidal Activity, phytotoxicity rating (0-100), SETVI ([4]; 63 g ai/ha)
100: Pre-emerge Herbicidal Activity, phytotoxicity rating (0-100), AMARE ([1]; 250 g ai/ha) | Pre-emerge Herbicidal Activity, phytotoxicity rating (0-100), CHEAL ([7]; 63 g ai/ha) | Pre-emerge Herbicidal Activity, phytotoxicity rating (0-100), CHEAL ([7]; 250 g ai/ha) | Pre-emerge Herbicidal Activity, phytotoxicity rating (0-100), ABUTH ([10]; 63 g ai/ha) | Pre-emerge Herbicidal Activity, phytotoxicity rating (0-100), ABUTH ([10]; 250 g ai/ha) | phytotoxicity rating ABUTH ([22]; 63 g ai/ha) | phytotoxicity rating ABUTH ([22]; 250 g ai/ha)
90: Pre-emerge Herbicidal Activity, phytotoxicity rating (0-100), AMARE ([1]; 63 g ai/ha) | Pre-emerge Herbicidal Activity, phytotoxicity rating (0-100), DIGSA ([8]; 250 g ai/ha)
30: Pre-emerge Herbicidal Activity, phytotoxicity rating (0-100), SORHA ([6]; 250 g ai/ha) | Pre-emerge phytotoxicity rating (0-100), crop damage, RICE ([12]; 250 g ai/ha) | phytotoxicity rating AMBEL ([14]; 250 g ai/ha) | phytotoxicity rating CASOB ([21]; 250 g ai/ha)
0: Pre-emerge Herbicidal Activity, phytotoxicity rating (0-100), ECHCG ([2]; 63 g ai/ha) | Pre-emerge Herbicidal Activity, phytotoxicity rating (0-100), IPOHE ([5]; 63 g ai/ha) | Pre-emerge Herbicidal Activity, phytotoxicity rating (0-100), SORHA ([6]; 63 g ai/ha) | Pre-emerge Herbicidal Activity, phytotoxicity rating (0-100), CASOB ([9]; 63 g ai/ha) | Pre-emerge phytotoxicity rating (0-100), crop damage, CORN ([11]; 63 g ai/ha) | phytotoxicity rating ECHCG ([13]; 63 g ai/ha) | phytotoxicity rating ECHCG ([13]; 250 g ai/ha) | phytotoxicity rating SETVI ([15]; 63 g ai/ha) | phytotoxicity rating SETVI ([15]; 250 g ai/ha) | phytotoxicity rating SORHA ([17]; 63 g ai/ha) | phytotoxicity rating SORHA ([17]; 250 g ai/ha) | phytotoxicity rating DIGSA ([19]; 63 g ai/ha) | phytotoxicity rating DIGSA ([19]; 250 g ai/ha) | phytotoxicity rating CORN ([23]; 63 g ai/ha) | phytotoxicity rating CORN ([23]; 250 g ai/ha) | phytotoxicity rating RICE ([24]; 63 g ai/ha) | phytotoxicity rating RICE ([24]; 250 g ai/ha)
95: Pre-emerge Herbicidal Activity, phytotoxicity rating (0-100), SETVI ([4]; 250 g ai/ha)
10: Pre-emerge Herbicidal Activity, phytotoxicity rating (0-100), ECHCG ([2]; 250 g ai/ha) | Pre-emerge phytotoxicity rating (0-100), crop damage, CORN ([11]; 250 g ai/ha) | phytotoxicity rating CASOB ([21]; 63 g ai/ha)
